In publication PMC12606608, “Identification of Novel Selective Transient Receptor Potential Vanilloid 4 (TRPV4) Agonists” (Current Pharmaceutical Design, 2025):
“Also recorded” adds a separate entry of the source. Where two headings read alike, the source gives them in different places.

Legend:
[1] = molecular target: T1, mouse TRPV4 (Mus musculus, UniProt Q9EPK8); experiment: Live-cell Fura-2 Ca2+ imaging in HEK293T cells transiently transfected with mouse TRPV4 (TRPV4-HEK293 cells); type: cell-based; conditions: for Ca2+ influx in the presence of GSK219: agonist 30 nM, pre- and co-applied 100 nM GSK219; for Hill coefficient: concentration-response curve; for Ca2+ influx (F340/F380): 30 nM, 2 min
T1 construct: expressed in transfected cells; host or cells: HEK293 (ATCC CRL-1573; elsewhere called HEK293T), transient, Lipofectamine 2000
T1 sequence (Q9EPK8 whole entry): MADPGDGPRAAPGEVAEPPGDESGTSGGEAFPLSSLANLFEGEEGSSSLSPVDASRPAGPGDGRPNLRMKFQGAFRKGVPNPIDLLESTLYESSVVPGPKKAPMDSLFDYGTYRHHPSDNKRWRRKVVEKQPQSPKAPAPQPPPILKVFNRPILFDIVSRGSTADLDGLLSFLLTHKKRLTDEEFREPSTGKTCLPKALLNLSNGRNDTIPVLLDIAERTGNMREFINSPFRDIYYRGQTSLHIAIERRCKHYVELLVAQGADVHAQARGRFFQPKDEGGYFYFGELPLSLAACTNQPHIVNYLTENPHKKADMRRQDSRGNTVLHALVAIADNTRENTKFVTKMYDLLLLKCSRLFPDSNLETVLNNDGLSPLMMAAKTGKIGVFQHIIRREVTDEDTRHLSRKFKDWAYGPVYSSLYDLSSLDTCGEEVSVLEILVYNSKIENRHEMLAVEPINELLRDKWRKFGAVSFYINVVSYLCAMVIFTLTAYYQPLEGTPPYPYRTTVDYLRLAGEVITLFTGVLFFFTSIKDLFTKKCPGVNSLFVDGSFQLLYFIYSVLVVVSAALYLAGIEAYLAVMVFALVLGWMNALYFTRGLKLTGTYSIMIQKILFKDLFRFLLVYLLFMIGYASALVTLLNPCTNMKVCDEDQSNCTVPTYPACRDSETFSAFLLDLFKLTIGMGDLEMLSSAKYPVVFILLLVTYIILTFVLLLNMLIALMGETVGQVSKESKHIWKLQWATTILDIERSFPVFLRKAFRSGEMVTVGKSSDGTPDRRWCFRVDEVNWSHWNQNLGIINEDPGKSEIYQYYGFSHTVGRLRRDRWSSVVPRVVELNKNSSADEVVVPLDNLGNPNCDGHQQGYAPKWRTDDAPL
Experimental: HEK293 cells were purchased from ATCC (ATCC CRL-1573; Manassas, VA, USA). As previously reported, the cells were tested for mycoplasma contamination before being cultured in the laboratory and grown as a monolayer in Dulbecco’s modified Eagle’s medium (DMEM) (Life Technologies, Carlsbad, CA, USA), supplemented with 10% fetal bovine serum (FBS; Life Technologies), 100 units/mL penicillin, and 100 μg/mL streptomycin. The cells were maintained in a humidified incubator at 37°C under 5% CO2. The cDNAs for mouse TRPV4 (mTRPV4) were transiently transfected into HEK293 cells for at least 24 hours using Lipofectamine 2000 (Invitrogen, Waltham, MA, USA).
(§1) Fura-2-based ratiometric measurements of intracellular calcium concentration ([Ca^2+]i) were performed as previously described. HEK293T cells transiently transfected with mTRPV4, primary keratinocytes, and macrophages were loaded with 4 μM Fura-2 AM (Life Technologies) in culture medium at 37°C for 60 minutes. The cells were then washed three times and incubated in Hanks’ balanced salt solution (HBSS) at room temperature for 30 minutes before use. Fluorescence intensities were measured at excitation wavelengths of 340 nm and 380 nm using an inverted Leica fluorescence microscope equipped with excitation filter wheels (340 nm, 360 nm, and 380 nm). The data were captured using LAS X imaging software (Leica Microsystems, Wetzlar, Germany). The Fura-2 ratios (F340/F380) were used to indicate changes in intracellular calcium ion concentrations ([Ca^2+]i) in response to stimulation. These values were derived from time-lapse imaging of each coverslip. The baseline of the cells was measured in the resting state, and once the value stabilized, the cells were treated with drugs. If no significant difference in the cell baseline was observed, cell viability was considered consistent. The activation threshold was defined as three standard deviations (SDs) above the mean, which corresponds to approximately 20% above the baseline.
GSK101 and the compounds were dissolved to create a concentration gradient (0.3 nM, 3 nM, 30 nM, 100 nM, 0.3 μM, 3 μM, 30 μM, 300 μM). Live-cell calcium imaging experiments were performed using fura-2-labeled TRPV4-HEK293 cells, and the fluorescence curves were recorded for each concentration of the compounds. The experiments were repeated three times, with the number of live cells in each field of view exceeding 100. The real-time fluorescence intensity curves from each experiment were statistically analyzed to calculate the cell response rate (the percentage of cells showing a fluorescence increase greater than 20% above baseline relative to the total number of cells). The concentration-response curves were fitted using GraphPad Prism (with the logarithm of concentration on the X-axis and the response rate on the Y-axis), and the Hill coefficient and EC50 values for each compound were automatically output.
To evaluate the efficacy of these synthetic analogues in vitro, we assessed their ability to activate TRPV4 using a Ca^2+ imaging assay. Because of the low expression of TRPV4 in native cells, we utilized a heterologous expression system and conducted Ca^2+ imaging in HEK293T cells that were transiently transfected with mouse TRPV4 (TRPV4-HEK293 cells).

[2] = system: C57BL/6J mice; experiment: Mechanical pain test (von Frey, intraplantar injection); type: in vivo, mouse
Experimental: (§2) Eighty adult male wild-type C57BL/6J mice and thirty TRPV4 knockout C57BL/6J mice (weighing 23-25g) were purchased from Gem Pharmatech (Nanjing, China) and maintained under a 12-hour light-dark cycle at 24°C. For all experiments, mice aged 8 to 12 weeks were utilized and acclimatized to the experimental room one week before the experiments. The mice were assigned to the experimental and control groups (5 mice/group) using a computer-generated table of random numbers (0-10), as well as the sequence of dosing and measurement. All behavioral tests were recorded from a side view, and the evaluations were carried out by observers who were unaware of the animals' treatment and genotype.
The mice were allowed to acclimate for 1.5 hours in red plastic enclosures on a metal mesh platform. The test compounds (30 μM) were formulated in 0.9% saline solution and administered via intraplantar injection with a volume of 10 μL. Calibrated von Frey filaments (0.02, 0.04, 0.07, 0.16, 0.4, 0.6, 1.0, 1.4, and 2.0 g) were applied perpendicularly to the plantar surfaces of the mice's hind paws for up to 2 seconds, with sufficient force to cause the filament to bend. Brisk withdrawal or flinching of the hind paw during or immediately after application was considered a positive response. […] The threshold force required to elicit paw withdrawal (50% mechanical threshold) was obtained using the up-down method.

[3] = system: C57BL/6J mice; experiment: Acute itch test (intradermal injection into the nape, scratches in 30 min); type: in vivo, mouse; conditions: 50 µL intradermal, wild-type mice
Experimental: as §2
Under 1 to 2% isoflurane anesthesia, the mice were shaved on the nape of the neck 5 to 7 days prior to the experiment. For all itch behavior experiments, the mice were acclimated in red plastic chambers for two days before measurements, with acclimation sessions lasting 2 hours on the first day and 1.5 hours on the day of measurement. GSK101 (30 μM) and the test compounds (30 μM and 300 μM) were formulated in 0.9% saline and administered via intradermal injection to the nape of the neck at a volume of 50 μL. […] Acute chemical itch was evaluated by counting the number of scratches within the 30-minute recording period.

[4] = molecular target: T2, TRPV4 in peritoneal macrophages (Mus musculus, UniProt Q9EPK8); experiment: Live-cell Ca2+ imaging in freshly dissociated peritoneal macrophages from TRPV4+/+ mice; type: cell-based; conditions: for [Ca2+]i response: 0.3 μM
T2 construct: endogenous in cells; host or cells: freshly dissociated murine peritoneal macrophages
T2 sequence (Q9EPK8 whole entry): as above
Experimental: Peritoneal macrophages were isolated as previously described. The mice were euthanized by cervical dislocation, and their abdomens were dissected in the middle. Six milliliters of cold phosphate-buffered saline (PBS) was instilled into the peritoneal cavity, followed by gentle massage and subsequent aspiration. The samples were centrifuged for 5 min at 4°C and 300 g, resuspended in 2 mL PBS, and filtered using […] cell strainers. After another centrifugation, the cell suspensions were seeded in […] Petri dishes containing 8-9 culture slides and placed in a culture incubator (37°C, 5% CO2).
as §1, with “baseline. […]” for “baseline.”

[5] = molecular target: T3, TRPV4 in primary keratinocytes (Mus musculus, UniProt Q9EPK8); experiment: Live-cell Ca2+ imaging in primary keratinocytes of neonatal TRPV4+/+ mice; type: cell-based; conditions: for [Ca2+]i response: 0.3 μM
T3 construct: endogenous in cells; host or cells: primary keratinocytes of neonatal (P0-P2) mice
T3 sequence (Q9EPK8 whole entry): as above
Experimental: Mice (P0-P2) were sacrificed and soaked in 10% povidone-iodine for 5 min. After being rinsed with 70% ethanol multiple times, the skin was removed and placed in a Petri dish containing PBS solution with 0.25% dispase II and incubated at 4°C overnight. The epidermis was then separated from the subcutaneous tissues, and keratinocytes were separated from the epidermis using a cell scraper and collected in 2 mL mouse keratinocyte media (Life Technologies). Dissociated cells were transferred to a 15% BSA column (1 mL) and centrifuged for 5 min at 1000 rpm. The cells were resuspended and seeded in […] Petri dishes containing 8-9 culture slides and placed in the culture incubator.
as §1, with “baseline. […]” for “baseline.”

[6] = dose-response of cell response rate, TRPV4-HEK293 cells, read-out: EC50
[7] = GSK219 1 μM pre- and co-applied

Ca2+ influx in the presence of GSK219 [1] | Hill coefficient ([1]; TRPV4-HEK293 cells) | EC50 [1, 6] [µM] | Ca2+ influx (F340/F380) ([1]; TRPV4-HEK293 cells) | Structure (SMILES) | also measured
abolished | 1.0280 | 0.168 |  | CC(C)CC(NC(=O)c1cc2ccccc2s1)C(=O)N1CCCN(C(=O)C(CO)NS(=O)(=O)c2ccc(Cl)cc2Cl)CC1 (stereo not drawn) [LM0038] | [Ca2+]i response [4]: induced a significant TRPV4-mediated calcium response; also recorded: signals with lower peaks than before; [Ca2+]i response [5]: induced a significant TRPV4-mediated calcium response; also recorded: weaker calcium influx than before
 |  |  | no measurable current | CC(C)CC(NC(=O)c1cc2ccccc2s1)C(=O)N1CC2(C1)CN(C(=O)C(CO)NS(=O)(=O)c1ccc(Cl)cc1)C2 (stereo not drawn) [LM6140] | 
 |  |  | no measurable current | CC(C)CC(NC(=O)c1cc2ccccc2s1)C(=O)N1CC2(C1)CN(C(=O)C(CO)NS(=O)(=O)c1cccc(Cl)c1)C2 (stereo not drawn) [LM6142] | 
abolished | 0.3283 | 78.9 |  | CC(C)CC(NC(=O)c1cc2ccccc2s1)C(=O)N1CC2(C1)CN(C(=O)C(CO)NS(=O)(=O)c1ccccc1Cl)C2 (stereo not drawn) [LM6146] | Immediate pain-inducing effect compared with GSK101 ([2]; 30 µM intraplantar, 0 h, wild-type mice): slightly weaker than that of GSK101; Pain-inducing effect one hour post-injection compared with GSK101 ([2]; 30 µM intraplantar, 1 h, wild-type mice): reached a level comparable to GSK101
abolished | 1.1150 | 6.08 |  | CC(C)CC(NC(=O)c1cc2ccccc2s1)C(=O)N1CC2(C1)CN(C(=O)C(CO)NS(=O)(=O)c1ccccc1)C2 (stereo not drawn) [LM6147] | 

The next lines start with the molecule.

Structure (SMILES) | Ca2+ influx in the presence of GSK219 [1] | Hill coefficient ([1]; TRPV4-HEK293 cells) | EC50 [1, 6] [µM] | Ca2+ influx (F340/F380) ([1]; TRPV4-HEK293 cells) | also measured
CC(C)C[C@H](NC(=O)c1cc2ccccc2s1)C(=O)N1CC2CCC(C1)N2C(=O)C(CO)NS(=O)(=O)c1ccc(Cl)cc1Cl (stereo partly drawn) [GM1004] | abolished | 1.1650 | 11.5 |  | 
CC(C)CC(NC(=O)c1cc2ccccc2s1)C(=O)N1CC2COCC(C1)N2C(=O)C(CO)NS(=O)(=O)c1ccc(Cl)cc1Cl (stereo not drawn) [GM1009] | abolished | 0.2998 | 85.6 |  | 
CC(C)C[C@H](NC(=O)c1cc2ccccc2s1)C(=O)N1CCN(C(=O)[C@H](CO)NS(=O)(=O)c2ccc(Cl)cc2Cl)CC1 [GSK101, N-((1S)-1-{[4-((2S)-2-{[(2,4-dichlorophenyl)sulfonyl]amino}-3-hydroxypropanoyl)-1-piperazinyl]carbonyl}-3-methylbutyl)-1-benzothiophene-2-carboxamide, reference compound] | abolished | 0.9273 |  | produced a Ca^2+ influx of different strengths | Mechanical hyperalgesia (paw withdrawal) vs control group ([2]; 30 µM, 10 µL intraplantar, wild-type mice): significantly induced mechanical hyperalgesia; Number of scratching bouts within 30 minutes (average) ([3]; 30 μM): 50; Number of scratches within 30 minutes (average) ([3]; 300 µM): 88; EC50 [1]: 0.0137 µM; [Ca2+]i response [4]: induced a significant TRPV4-mediated calcium response; [Ca2+]i response [5]: induced a significant TRPV4-mediated calcium response
O=C(NC1(c2ccccc2)CC1)c1c(CN2CCC(N3CCCCC3)CC2)c(-c2cccc(C(F)(F)F)c2)nc2cc(Br)ccc12 [GSK219, reference compound] |  |  |  |  | Block of compound-induced pain-like behavior ([2]; GSK219 intraperitoneally 30 minutes before plantar injection of compounds (30 µM)): blocked the pain-like behavior induced by GSK101 derivatives; Inhibition of agonist-induced Ca2+ influx ([1]; 100 nM GSK219 pre- and co-applied, TRPV4-HEK293 cells): abolished the action of GSK101 and compounds; Inhibition of agonist-elicited [Ca2+]i response [4, 7]: abolished the GSK101 action; Inhibition of agonist-elicited [Ca2+]i response [5, 7]: abolished the GSK101 action
CC(C)CC(NC(=O)c1cc2ccccc2s1)C(=O)N1CCN(C(=O)C(CO)NC(=O)c2ccc(Cl)cc2Cl)CC1 (stereo not drawn) [LM0024] | abolished | 0.7036 | 20 |  | 
CC(C)CC(NC(=O)c1cc2ccccc2s1)C(=O)N1CCN(C(=O)C(CO)NC(=O)c2ccc(Cl)cc2)CC1 (stereo not drawn) [LM0025] |  |  |  | no measurable current | 
C[C@H](CCC(=O)O)C[C@H](C)C[C@H](C)C(=O)/C=C(\O)[C@H](C)C[C@H](C)C/C=C/[C@@H](C)[C@@H](O)[C@@H](C)[C@@H](O)C[C@@H]1CC[C@@](C)([C@H]2CC[C@@](C)([C@@H](C)O)O2)O1 [ionomycin, reference compound] |  |  |  |  | Intracellular calcium concentration (positive control) ([1]; 1 μM ionomycin, TRPV4-HEK293 cells): rapidly and significantly increased intracellular calcium concentration
